# Entries after “also recorded” stand apart in the source; their conditions may differ.
# Key:
# Format in all cases: in vivo, human
# [1] = system: patients with pain / restless legs syndrome; assay: Case histories: NAC added to oral ketamine (pain diary, patient reports); conditions: single patients; Case 1: NAC 25 mg, within 24 hours; Case 2: ketamine 150 mg/day
# Experimental: The patient maintained a diary noting their level of pain with 1 being the lowest and 10 the highest. […] The patient was then administered 25 mg of NAC to be taken in combination with oral ketamine.
# [2] = system: patients on chronic methadone therapy for pain; assay: Piper survey for fatigue in chronic pain patients on methadone, with and without NAC
# Experimental: (§1) 6 patients who have been on chronic methadone therapy for pain treatment and who are also taking NAC (600 mg/day) were studied. Patients were taking a range of methadone doses (30-160 mg/day).
# (§2) This is a descriptive case study of 6 patients. A blood sample was obtained and used to measure serum methadone levels was obtained on methadone/NAC therapy. NAC was supplied by the investigator from assayed commercially available supply and pill counts were done to assure patient compliance. The patients were on the same methadone dose for over seven days; this ensures steady state levels of methadone had been achieved. The patients were then be asked to stop taking NAC for 7 days and were asked to return to the clinic for a second blood draw that measured serum methadone levels. Blood was collected in the offices of BAA. Three additional patients were studied, after the results from sera of the initial patients were assayed; these patients had baseline pain and fatigue assessments with the Piper Survey and were subsequently treated with NAC, serum determinations were sent, but have not as yet been completed. Thus patients on methadone were studied with NAC withdrawal (First Group) and NAC added to treatment (second group). The medical chart was reviewed for current medications, including over the counter medications, supplements, and herbal preparations; health conditions and available laboratory evaluations of electrolytes. The patient's age and gender was recorded.
# (§3) BAA offices: A 5 ml blood sample will be obtained on methadone/NAC. Blood was drawn prior to a normally timed dose of methadone. The patient was instructed to discontinue taking NAC and returned in 7 days, at the same time, for a blood draw. This was also drawn prior to a normally timed dose of methadone. Patients completed a Piper survey for fatigue and distress on each occasion prior to the blood draw. The Piper score reflects a valid measure of fatigue. Higher numbers for the score are indicative of greater fatigue. Within the Piper survey a pain measure is also recorded. Both pain and fatigue scores were measured at each of the clinical visits one week apart. Trained study personnel completed chart review. Analysis of serum concentrations of methadone was completed at the Bioanalytical Core Lab at the Arizona Health Science Center (Sarver Heart Center, University of Arizona, Tucson).
# [3] = system: patients on chronic methadone therapy for pain; assay: VAS pain and clinical comments in pain patients in clinical trial, with and without NAC
# Experimental: as §1, §2, §3
# [4] = system: Restless Legs Syndrome (RLS) subjects; assay: Clinical use: relief of Restless Legs Syndrome symptoms; conditions: clinical observation
# Experimental: The blood levels of these patients measured below detection thresholds (20 ng/ml) and well below the blood levels recorded for pain relief (300 ng/ml). The NAC dose used in the present invention was far less than the 500 mg TID dose used as a supplement in treatment of diseases of inflammation.
# [5] = cases summarized and a few additional cases
# [6] = on methadone without NAC (M001-M003 NAC stopped 7 days; M004-M006 baseline before NAC)
structure (smiles),measurement,setting,value
CNC1(c2ccccc2Cl)CCCCC1=O (stereo not shown) [ketamine],pain relief (patient report),[1],noted pain relief
"CC(=O)N[C@@H](CS)C(=O)O [NAC, N-acetyl-cysteine]",fatigue when NAC is added to methadone,[2]; [5],Improvement in fatigue
same,Fatigue (yes/no),"[2]; on methadone with NAC, patients M001-M006",No
same,Fatigue (yes/no),[2]; [6],Yes and No
same,medication for pain when NAC is added to methadone,[3]; [5],reduction in medication for pain
same,opioid reduction,"[3]; patient M004, after NAC added to methadone",subsequently; 30% opiod
same,Comments: change on stopping NAC,"[3]; patients M001-M003 on methadone, NAC stopped 7 days",Inc. irritabil; also recorded: Inc.pain/w
same,Comments: patient report / clinical course after NAC added,"[3]; patients M004-M006 on methadone, NAC added",Stopped all oxycondone; also recorded: “much less fatigue since starting; also recorded: “I do feel better taking NAC”
"CCC(=O)C(CC(C)N(C)C)(c1ccccc1)c1ccccc1 (stereo not shown) [Mtd, methadone]",Fatigue (yes/no),[2]; [6],Yes
COc1ccc2c(c1)[C@]13CCCC[C@@H]1[C@H](C2)N(C)CC3 [dextromethorphan],symptoms of Restless Legs Syndrome (RLS),[4],treats restless legs syndrome

# Source: patent US20080096872A1, “Composition for Treatment of Pain Specification” (priority 2004, published 2008)
